US20240269212A1, “HEMP EXTRACT FOR TREATMENT OF PAIN, CANCER AND EPILEPSY IN ANIMALS” (Portland Technology Holdings LLC., priority 2021, published 2024)

Experiments:
[1] = Serum cannabinoid concentrations after 1 and 2 weeks of twice daily dosing (relative steady state); type: in vivo, dog (beagle); details: for concentration at 6 h: male, beagle, dog, 2 mg/kg, 2 mg/kg twice daily, six hours after the morning dose
From the text: Six intact male beagles all 2 years of age weighing between 18.6 and 22.2 kilograms body weight were housed at the Baker Institute for Animal Health and all procedures were approved by the Cornell University Institutional Animal Care and Use Committee (Protocol 2019-0001). All dogs underwent the fasted treatment trial for a two-week period and were then allowed 2 weeks of washout before beginning the fed stage of the trial which included ¼ of a 13 ounce can of a wet food (PURINA® Pro Plan Savory Chicken and Rice Formula, Nestle Purina, St. Louis, MO) at the time of dosing. Twenty-four hour pharmacokinetic analysis of serum cannabinoid levels was performed on day 1 after a single dose in the fed or fasted state. Then, twice daily dosing of treatment oil at both 7 am and 7 pm was performed on the following days for two weeks, and serum cannabinoids were measured. Prior to the study all dogs had blood drawn for a complete blood count and serum chemistry and again at the end of each phase of the 2 week study. Complete blood counts (white blood cells [WBC], hematocrit, hemoglobin, red blood cells [RBC], neutrophils, lymphocytes, platelets, monocytes, eosinophils, basophils) and serum biochemistry analyses (sodium, potassium, chloride, magnesium, calcium, phosphorus, albumin, total protein, globulin, urea nitrogen, creatinine, alkaline phosphatase [ALP], alanine aminotransferase [ALT], aspartate amino transferase [AST], cholesterol, total bilirubin, glucose and gamma glutamyl transferase [GGT]) were performed at the Cornell University Diagnostic Laboratory. For the fasted and fed portions of the 24 hour pharmacokinetic analysis study the dogs were administered 2 mg/kg body weight of an equal mix of 30 mg/mL CBG and 30 mg/mL CBGA from a hemp extract in a sesame oil base which was tested again at the end of the study showing virtually the same analytical profile. Two milliliters of blood was drawn via jugular venipuncture for all 6 dogs prior to the initial dose (0 hours) and then again at 0.5, 1, 2, 4, 8, 12 and 24 hours. Prior to enrollment all dogs involved in the study were deemed healthy based on physical examination. Behavioral observations were performed 2 hours after morning dosing for each phase of the trial. Behavioral observations were performed on day 1, day 3, day 7, and day 14. Physical and behavioral examinations were performed to assess for adverse events including diarrhea, vomiting, lethargy, somnolence, ataxia, or abnormal behavior within the colony. Due to the potential for CBG/CBGA to affect heart rate, dogs were assessed manually for resting heart rates for 30 seconds and extrapolated to relative beats per minute after initial dosing at time points 0, 1, 2, 4, 12, 24 and 48 hours and again at day 7 and day 14 after morning dosing for both the fed and fasted arms of the study. Serum was also obtained on day 7 and day 14 six hours after the morning dose for further serum cannabinoid measurement to establish relative steady state serum concentrations.
Analysis was performed using an exploratory (fit-for-purpose) method for fast measurement of thirteen cannabinoids and their metabolites at the Toxicology Research Laboratory, University of Illinois at Chicago. The reference standards for CBD and CBDA were obtained from Restek Corporation (Bellefonte, PA); all other reference and internal standards including CBG and CBGA were obtained from Cerilliant Corporation (Round Rock, TX). The concentrations of cannabinoids (CBD, CBDA, 7-COOH Cannabidiol (7-COOH-CBD), THC, THCA, cannabinol (CBN), cannabichromene (CBC), CBG, and CBGA) and their metabolites (7-OH-CBD, 7-COOH-CBD, COOH-THC, and COOH-THC-Glu) in dog sera were determined using high performance liquid chromatography with tandem mass spectrometry (LC-MS/MS) (Nexera X2 and LCMS 8050, Shimadzu Corp., Kyoto, Japan). […]

[2] = Physical and behavioral examinations for adverse events; type: in vivo; details: healthy dogs, oral 2 mg/kg twice daily for 2 weeks
From the text: All dogs underwent the fasted treatment trial for a two-week period and were then allowed 2 weeks of washout before beginning the fed stage of the trial which included ¼ of a 13 ounce can of a wet food (PURINA® Pro Plan Savory Chicken and Rice Formula, Nestle Purina, St. Louis, MO) at the time of dosing. […] Prior to the study all dogs had blood drawn for a complete blood count and serum chemistry and again at the end of each phase of the 2 week study. Complete blood counts (white blood cells [WBC], hematocrit, hemoglobin, red blood cells [RBC], neutrophils, lymphocytes, platelets, monocytes, eosinophils, basophils) and serum biochemistry analyses (sodium, potassium, chloride, magnesium, calcium, phosphorus, albumin, total protein, globulin, urea nitrogen, creatinine, alkaline phosphatase [ALP], alanine aminotransferase [ALT], aspartate amino transferase [AST], cholesterol, total bilirubin, glucose and gamma glutamyl transferase [GGT]) were performed at the Cornell University Diagnostic Laboratory. […] Due to the potential for CBG/CBGA to affect heart rate, dogs were assessed manually for resting heart rates for 30 seconds and extrapolated to relative beats per minute after initial dosing at time points 0, 1, 2, 4, 12, 24 and 48 hours and again at day 7 and day 14 after morning dosing for both the fed and fasted arms of the study.

[3] = Manual resting heart rate monitoring; type: in vivo, dog (beagle); details: initial dosing and two-week period of treatment
From the text: Six intact male beagles all 2 years of age weighing between 18.6 and 22.2 kilograms body weight were housed at the Baker Institute for Animal Health and all procedures were approved by the Cornell University Institutional Animal Care and Use Committee (Protocol 2019-0001). All dogs underwent the fasted treatment trial for a two-week period and were then allowed 2 weeks of washout before beginning the fed stage of the trial which included ¼ of a 13 ounce can of a wet food (PURINA® Pro Plan Savory Chicken and Rice Formula, Nestle Purina, St. Louis, MO) at the time of dosing. Twenty-four hour pharmacokinetic analysis of serum cannabinoid levels was performed on day 1 after a single dose in the fed or fasted state. Then, twice daily dosing of treatment oil at both 7 am and 7 pm was performed on the following days for two weeks, and serum cannabinoids were measured. Prior to the study all dogs had blood drawn for a complete blood count and serum chemistry and again at the end of each phase of the 2 week study. […] Due to the potential for CBG/CBGA to affect heart rate, dogs were assessed manually for resting heart rates for 30 seconds and extrapolated to relative beats per minute after initial dosing at time points 0, 1, 2, 4, 12, 24 and 48 hours and again at day 7 and day 14 after morning dosing for both the fed and fasted arms of the study. […]

SMILES: CCCCCc1cc(O)c(C/C=C(\C)CCC=C(C)C)c(O)c1 [CBG, cannabigerol]
- concentration at 6 h ([1]; serum, oral, week one, fasted): 5 ± 3.5 ng/mL
- concentration at 6 h ([1]; serum, oral, week one, fed): 12.7 ± 12.3 ng/mL
- concentration at 6 h ([1]; serum, oral, week two, fasted): 6.1 ± 6 ng/mL
- concentration at 6 h ([1]; serum, oral, week two, fed): 9.6 ± 8.4 ng/mL
- Short-term safety (serum biochemistry, blood count, physical exam and heart rate monitoring) [2]: appear to be safe

SMILES: CCCCCc1cc(O)c(C/C=C(\C)CCC=C(C)C)c(O)c1C(=O)O [CBGA, cannabigerolic acid]
- concentration at 6 h ([1]; in vivo, week one, fasted): 437 ± 414 ng/mL
- concentration at 6 h ([1]; in vivo, week one, fed): 564 ± 574 ng/mL
- concentration at 6 h ([1]; in vivo, week two, fasted): 260 ± 300 ng/mL
- concentration at 6 h ([1]; in vivo, week two, fed): 223 ± 197 ng/mL
- absorption and retention, fold higher than what can be achieved with CBG ([1]; oral dosing over a 2-week period): ~10 fold
- Bradycardia upon oral absorption [3]: does not induce bradycardia
- Short-term safety (serum biochemistry, blood count, physical exam and heart rate monitoring) [2]: appear to be safe
